In US20090048229A1, “Methods for promoting wakefulness” (priority 2007, published 2009):
pIC50: −log10 of the molar value. Read-outs that look alike come from different tables or passages of the source.

How the values were obtained:
[1] = molecular target: T1, human recombinant acetylcholinesterase (Homo sapiens, UniProt P22303); experiment: biochemical; settings: for inhibition at 10 µM: read-out: Inhibition of AChE (%) 10 μM
T1 construct: purchased Sigma Chemical Co (St. Louis, Mo.) C1682
Experimental: All reagents employed in this experiment were of analytical grade. Acetylthiocholine iodide and 5,5′-dithiobis-(2-nitro)benzoic acid (DTNB) and human recombinant acetylcholinesterase (C1682) were purchased from Sigma Chemical Co (St. Louis, Mo.).
The enzyme, compound or stigmine and buffer were preincubated for 30 minutes. At the end of the preincubation period, the substrate acetylthiocholine was added. The final assay mixture contained 10 mM Tris-buffer (pH 8), 0.3 mM Acetylthiocholine and 0.33 mM DTNB and 0.08 U/ml enzyme. At least five (5) different concentrations of the compound or stigmine were assayed per IC50 experiment.
Hydrolysis of acetylthiocholine was monitored indirectly by measurement of the formation of the conjugate between thiocholine and DTNB.

[2] = molecular target: AChE (Homo sapiens, UniProt P22303); assay type: biochemical
Chain of AChE (P22303 32-614): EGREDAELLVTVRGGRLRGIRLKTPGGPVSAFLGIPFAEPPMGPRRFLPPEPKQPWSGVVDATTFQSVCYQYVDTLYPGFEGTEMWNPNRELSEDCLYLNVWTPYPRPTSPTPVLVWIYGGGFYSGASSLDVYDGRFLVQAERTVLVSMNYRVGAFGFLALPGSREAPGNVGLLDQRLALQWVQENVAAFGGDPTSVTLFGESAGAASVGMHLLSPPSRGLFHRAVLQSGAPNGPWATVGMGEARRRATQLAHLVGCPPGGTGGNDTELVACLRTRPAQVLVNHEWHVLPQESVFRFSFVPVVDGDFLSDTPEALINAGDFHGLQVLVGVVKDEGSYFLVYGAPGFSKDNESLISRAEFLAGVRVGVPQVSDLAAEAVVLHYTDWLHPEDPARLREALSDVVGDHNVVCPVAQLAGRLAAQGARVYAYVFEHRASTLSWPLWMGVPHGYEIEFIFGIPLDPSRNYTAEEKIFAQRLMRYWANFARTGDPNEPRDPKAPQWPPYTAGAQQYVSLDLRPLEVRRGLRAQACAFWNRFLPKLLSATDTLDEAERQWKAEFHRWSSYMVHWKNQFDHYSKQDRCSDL

[3] = molecular target: BuChE (Homo sapiens, UniProt P06276); experiment: In vitro screening assay, BuChE inhibition; assay type: biochemical
Chain of BuChE (P06276 29-602): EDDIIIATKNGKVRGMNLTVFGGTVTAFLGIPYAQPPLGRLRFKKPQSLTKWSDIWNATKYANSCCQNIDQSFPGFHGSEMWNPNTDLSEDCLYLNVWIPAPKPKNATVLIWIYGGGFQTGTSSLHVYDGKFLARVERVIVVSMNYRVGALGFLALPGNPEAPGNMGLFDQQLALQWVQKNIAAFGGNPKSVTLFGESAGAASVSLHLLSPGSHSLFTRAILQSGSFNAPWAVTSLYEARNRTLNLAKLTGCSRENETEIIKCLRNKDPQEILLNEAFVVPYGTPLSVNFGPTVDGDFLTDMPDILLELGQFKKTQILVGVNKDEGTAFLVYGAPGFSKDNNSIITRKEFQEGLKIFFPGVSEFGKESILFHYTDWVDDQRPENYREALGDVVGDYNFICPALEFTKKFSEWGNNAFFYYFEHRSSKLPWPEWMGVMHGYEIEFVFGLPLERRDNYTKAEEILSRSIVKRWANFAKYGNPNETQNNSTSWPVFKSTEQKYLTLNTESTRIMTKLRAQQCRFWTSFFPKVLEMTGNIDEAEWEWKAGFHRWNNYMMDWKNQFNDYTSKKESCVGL
Text: An in vitro screening assay with various conjugates was completed according to the methods described in Ellman G L et al., Biochem Pharmacol., 7:88-95 (1961) and in Nadarajah B, J. Anal. Toxicol., 16:192-193 (1992), both of which are herein incorporated by reference in their entireties. The assay method was completed according to the following: […]

[4] = system: male CD IGS (Sprague Dawley derived) rats; experiment: Induction of hypothermia after subcutaneous administration; assay type: in vivo, rat; settings: for Hypothermia MED / Induction of hypothermia MED (mg/kg s.c.) / Hypothermia MED (mg/kg): s.c.; for Hypothermia MED / Hypothermia MED (mg/kg): rats; for Induction of hypothermia MED (mg/kg s.c.): hypothermia = fall in temperature of >0.5° C.; for fall in body temperature: subcutaneous administration
Text: Cholinergic agonists cause hypothermia through a central mechanism of action (Freedman et al, 1989. Direct measurement of muscarinic agents in the central nervous system of mice using ex vivo binding. Eur. J. Pharmacol. 174:253-260). […] Since a premise of the present invention is that carbomyl esters would liberate the conjugated amine in the CNS only after inhibition of acetylcholinesterase, induction of hypothermia provides a useful correlation with the acetylcholinesterase inhibition detected in vitro and in vivo.
Hypothermia was defined as a fall in temperature of >0.5° C.
Hypothermia is a marker of CNS penetration for ACHE inhibitors.
(§1) If less soluble, the maximum injection volume was 5 mL/kg.
(§2) Baseline temperatures were taken just before injection.

[5] = Dose range for cholinergic effects / max tolerated dose; assay type: in vivo, rat; settings: s.c., rats
Experimental: as §1, §2

[6] = molecular target: butylryl cholinesterase (Homo sapiens, UniProt P06276); experiment: Inhibition of butyrylcholinesterase; assay type: biochemical; settings: read-out: Inhibition of BuChE (%) 10 μM
Chain of butylryl cholinesterase (P06276 29-602): as above
Experimental: The inhibition of butylryl cholinesterase was determined using methods known in the art e.g., Alcala Molel M. et al. (2003) Characterization of the anticholinesterase activity of two new tacrin-huperzine A hybrids. Neuropharmacology, 44 (6), 749-755.

[7] = system: male Wistar rats; experiment: Wake promotion (EEG/EMG sleep-wake, locomotor activity, body temperature); assay type: in vivo, rat; settings: for duration of wakefulness: administered 5 hours after lights on (CT-5), FIG. 2
Experimental: Test compounds in various dose ranges or vehicle were administered to male Wistar rats 5 hours after lights on (CT-5). EEG, EMG, locomotor activity, drink- and food-related activity, and body temperature were concurrently monitored for 30 hr before and after treatment from rats living in separate isolated recording chambers. Sleep-wake discriminations were carried out using SCORE2004™, proprietary real-time hardware and software technology of Hypnion, Inc. (Lexington, Mass.). Comparisons were made between the reference compounds: d-amphetamine, rivastigmine, modafinil, and the following carbamoyl ester test compounds: […]

[8] = 30 min preincubation, 25° C., read-out: Inhibition of AChE IC50

T1 sequence (P22303 32-614): as the sequence (P22303 32-614) above

Row | SMILES | pIC50 [1] | AChEI (%) 1 μM ([2]; 1 μM) | AChEI (%) 10 μM ([2]; 10 μM) | BuChEI (%) 10 μM ([3]; 10 μM) | Max Tolerated Dose [5] | further results
1 | C[C@@H](c1cccc(OC(=O)N(C)CCC(Oc2ccc(C(F)(F)F)cc2)c2ccccc2)c1)N(C)C (some centres unmarked) [Compound 7A, S-riva-fluoxetine] | 5.32 | 11% | 76% | 15% | ≧100 | Hypothermia MED [4]: 3 mg/kg
2 | C[C@@H](c1cccc(OC(=O)N(C)CC[C@H](Oc2cccc3ccccc23)c2cccs2)c1)N(C)C [Compound 10, S-riva-duloxetine] | 6.30 to 6.70 | 88% | 100% | 36% |  | 
3 | COCCCC/C(=N\OCCNC(=O)Oc1cccc([C@H](C)N(C)C)c1)c1ccc(C(F)(F)F)cc1 [Compound 8, S-riva-fluvoxamine] | 5.21 | 17% | 76% | 6% |  | 
4 | C#CCN(C(=O)Oc1ccc2c(c1)[C@]1(C)CCN(C)[C@@H]1N2C)[C@H](C)Cc1ccccc1 [Compound 18, Physo-desmethylselegiline] |  |  | 37% | 8% |  | 
5 | C[C@@H](Cc1ccccc1)NC(=O)Oc1cccc([C@H](C)N(C)C)c1 [Compound 20, S-riva-d-amphetamine] |  | 35% | 76% | 20% |  | pIC50 [1, 8]: 5.51; inhibition at 10 µM [1]: 76%; inhibition at 10 µM [6]: 20%; Induction of hypothermia MED (mg/kg s.c.) [4]: ≦1 mg/kg s.c.; fall in body temperature [4]: dose-related-related fall in body temperature; duration of wakefulness [7]: dose-related increase in wakefulness
6 | C[C@@H](c1cccc(OC(=O)N2CC[C@@H](c3ccc(F)cc3)[C@H](COc3ccc4c(c3)OCO4)C2)c1)N(C)C [Compound 9A, S-riva-paroxetine] | 5.02 | 9% | 69% | 4% |  | 
7 | C[C@@H](c1cccc(OC(=O)N2CCN(C3=Nc4ccccc4Oc4ccc(Cl)cc43)CC2)c1)N(C)C [Compound 3, S-riva-amoxapine] | 4.68 |  | 16% | 6% | ≧100 | Hypothermia MED [4]: 10 mg/kg
8 | CN[C@@H](C)Cc1ccccc1 [d-methamphetamine, reference compound] |  |  |  |  |  | locomotor hyperactivity / stimulant activity ([7]; FIG. 5): locomotor hyperactivity
9 | C[C@@H](c1cccc(OC(=O)N(C)CCCC2c3ccccc3C=Cc3ccccc32)c1)N(C)C [Compound 6, S-riva-protriptyline] | 6.30 | 81% | 99% | 53% | >100 | BuChEI (%) 1 μM ([3]; 1 μM): 16%; Hypothermia MED [4]: 100 mg/kg
10 | C#CCN(C(=O)Oc1cccc([C@@H](C)N(C)C)c1)[C@H](C)Cc1ccccc1 [Compound 17, R-riva-desmethylselegiline] |  |  | 31% | 12% |  | 
11 | CC(CC1CCCCC1)N(C)C(=O)Oc1cccc([C@H](C)N(C)C)c1 (some centres unmarked) [Compound 16, S-riva-propylhexedrine] | 6.05 |  |  |  | ≧100 | Hypothermia MED [4]: 10 mg/kg
12 | CCN(C)C(=O)Oc1cccc([C@H](C)N(C)C)c1 [Compound 1, S-rivastigmine, reference compound] |  |  |  |  | 10 | inhibition at 10 µM [6]: 100%; BuChEI (%) 1 μM [3]: 45%; BuChEI (%) 10 μM [3]: 100%; Hypothermia MED (mg/kg) [4]: ≦0.1 mg/kg; Induction of hypothermia MED (mg/kg s.c.) [4]: ≦0.1 mg/kg s.c.; fall in body temperature [4]: dose-related-related fall in body temperature; rebound hypersomnolence ([7]; FIG. 3): rebound hypersomnolence; duration of wakefulness [7]: increased wakefulness
13 | C[C@H](N)Cc1ccccc1 [d-amphetamine, reference compound] |  |  |  |  |  | effect on body temperature ([7]; FIG. 4): increase in body temperature (hyperthermia); duration of wakefulness [7]: increased the duration of wakefulness
14 | C[C@@H](c1cccc(OC(=O)N(C)CCCN2c3ccccc3CCc3ccccc32)c1)N(C)C [Compound 4, S-riva-desipramine] | 6.70 | 91% | 99% | 60% | ≧100 | BuChEI (%) 1 μM ([3]; 1 μM): 16%; Hypothermia MED [4]: 3 mg/kg
15 | C[C@@H](c1cccc(OC(=O)N[C@H]2C[C@@H]2c2ccccc2)c1)N(C)C (stereo in doubt) [Compound 2, S-riva-tranylcypromine] | 6.70 | 84% | 97% | 67% | 30 | BuChEI (%) 1 μM ([3]; 1 μM): 23%; Hypothermia MED [4]: 10 mg/kg
16 | C[C@@H](c1cccc(OC(=O)N(C)[C@@H](C)Cc2ccccc2)c1)N(C)C [Compound 13, S-riva-d-methamphetamine] |  | 51% | 97% | 95% |  | pIC50 [1, 8]: 5.96; inhibition at 10 µM [1]: 97%; inhibition at 10 µM [6]: 95%; BuChEI (%) 1 μM ([3]; 1 μM): 25%; Induction of hypothermia MED (mg/kg s.c.) [4]: 10 mg/kg s.c.; fall in body temperature [4]: dose-related-related fall in body temperature; duration of wakefulness [7]: dose-related increase in wakefulness
17 | C[C@@H](c1cccc(OC(=O)N(C)CCC=C2c3ccccc3CCc3ccccc32)c1)N(C)C [Compound 5A, S-riva-nortriptyline] | 6.30 | 81% | 99% | 55% |  | BuChEI (%) 1 μM ([3]; 1 μM): 24%
18 | Cc1ccccc1O[C@H](CCN(C)C(=O)Oc1cccc([C@H](C)N(C)C)c1)c1ccccc1 [Compound 5, S-riva-atomoxetine] |  | 29% | 89% | 14% | ≧100 | Hypothermia MED (mg/kg) [4]: ≦1 mg/kg
19 | NC(=O)C[S+]([O-])C(c1ccccc1)c1ccccc1 (centres unmarked) [modafinil, reference compound] |  |  |  |  |  | duration of wakefulness [7]: increased the duration of wakefulness
20 | CN1CC[C@@]2(C)c3cc(OC(=O)Nc4ccccc4)ccc3N(C)[C@@H]12 [Phenserine, reference compound] |  |  |  |  |  | AChEI (%) 1 μM [2]: 93%; AChEI (%) 10 μM [2]: 99%; BuChEI (%) 10 μM [3]: 42%
21 | COc1ccccc1CC(C)N(C)C(=O)Oc1cccc([C@H](C)N(C)C)c1 (some centres unmarked) [Compound 15, S-riva-methoxyphenamine] | 5.96 | 49% | 95% | 30% |  | inhibition at 10 µM [1]: 95%; inhibition at 10 µM [6]: 30%
22 | C[C@@H](Cc1ccccc1)NC(=O)Oc1ccc2c(c1)[C@]1(C)CCN(C)[C@@H]1N2C [Compound 14, Physo-d-amphetamine] |  | 45% | 94% | 28% |  | inhibition at 10 µM [1]: 94%; inhibition at 10 µM [6]: 28%
23 | C#CCN(C(=O)Oc1cccc([C@H](C)N(C)C)c1)[C@H](C)Cc1ccccc1 [Compound 11, S-riva-desmethylselegiline] |  | 13% | 52% | 17% |  | 
